The values below come from patent US20240109861A1, “SERIES OF PIPERIDINE-SUBSTITUTED BENZOIC ACID COMPOUNDS, AND USE THEREOF” (priority 2020, published 2024).

Marks after values point to notes of the source that are not given here.

The test system of series [1] is LPS-induced complement activation (plasma C3d protein levels). The experiment in a line: In vivo PD model of LPS-induced complement activation in mice. Further details: species or system female C57BL/6J mice. The following applies: for inhibition of C3d levels (LPS-induced complement activation): LPS i.p., plasma Western blot, FIG. 1; for inhibitory effect compared with LNP023: LPS-induced complement activation, C3d levels. How it is done: Experimental objective: To investigate the inhibitory effect of the compounds of the present disclosure on complement activation in mice induced by LPS stimulation. Experimental animals: female C57BL/6J mice, 7 to 9 weeks old, weighing 17 to 23 g; supplier: Shanghai Sipple-Bikai Laboratory Animal Co., Ltd.
Experimental procedure: 100 μg of lipopolysaccharide (LPS) in Salmonella typhimurium (Sigma) dissolved in 100 μL of sterile PBS was intraperitoneally injected to induce complement activation in mice. Negative control animals were intraperitoneally injected 100 μL of sterile PBS, and administered alone by tube feeding (PO). Positive control animals were intraperitoneally injected LPS and PO drug vehicles (0.5% (w/v) methyl cellulose and 0.5% (v/v) Tween 80). The time points for administration and plasma collection are as follows:
Sample collection: 0.3 mL of blood samples were collected from the orbital venous plexus. All blood samples were added to 1.5 mL commercial EDTA-K2 anticoagulant tubes (supplied by Jiangsu Kangjian Medical Apparatus Co., Ltd.). After collection, within half an hour, the blood sample was centrifuged at 4° C., 3000 g for 10 min to aspirate the supernatant plasma, which was put in dry ice immediately, and stored in a refrigerator at −80° C. for Western blot analysis of downstream C3d protein levels after complement activation.
Background: A western blot detects proteins with antibodies after separation by electrophoresis.

Series [2] deals with alternative complement pathway in human serum. The series is described as follows: Wieslab alternative complement pathway activation inhibition (enzyme activity test). The class given is biochemical. The following applies: human serum diluted 1:23, Wieslab alternative pathway kit; read-out: AP MAC IC50. As for the experimental part:
The objective of this experiment is to determine the inhibitory activity of the compounds of the present disclosure on the alternative complement pathway in human serum by using the Wieslab® complement system alternative pathway kit.
Serum was diluted with diluent (1:23). Drugs were added to the diluted serum with 8 concentration gradients of up to 10 mM or 50 mM in a 5-fold serial dilution. […] The mixture of compound and serum was added to a 96-well plate (100 μL/well) provided in the kit, and activated at 37° C. for 1 hour. The plate was washed three times with wash buffer. The plate was added with detection antibody (100 μL) provided in the kit and incubated at room temperature for 30 min. The plate was washed three times with wash buffer. The plate was added with substrate (100 μL) and incubated at room temperature for 30 min.

Series [3] in a line: Pharmacokinetic study in mice. The class given is in vivo, male C57BL/6J mice. How it is done:
Experimental objective: To investigate in vivo plasma pharmacokinetics of the compounds of the present disclosure after a single intravenous injection and intragastric administration in male C57BL/6J mice.
Experimental animals: male C57BL/6J mice, 7 to 9 weeks old, weighing 17 to 23 g; supplier: Shanghai Sipple-Bikai Laboratory Animal Co., Ltd.
Sample collection: 0.03 mL of blood samples were collected by puncture of the saphenous vein in experimental animals at each time point, and the actual blood collection time was recorded. All blood samples were added to 1.5 mL commercial EDTA-K2 anticoagulant tubes (supplied by Jiangsu Kangjian Medical Apparatus Co., Ltd.). After collection, within half an hour, the blood sample was centrifuged at 4° C., 3000 g for 10 min to aspirate the supernatant plasma, which was put in dry ice immediately, and stored in a refrigerator at −80° C. for LC-MS/MS analysis.
Data analysis: Plasma concentrations were processed using the non-compartmental model of WinNonlinTM Version 6.3 (Pharsight, Mountain View, CA) pharmacokinetic software, and pharmacokinetic parameters Cl, T1/2, Cmax, and AUC0-last were calculated using the linear/log trapezoidal method.

A short description of series [4]: Pharmacokinetic study in rats. Type of series: in vivo, male Wistar Han rats. How it is done: Experimental objective: To investigate in vivo plasma pharmacokinetics of the compounds of the present disclosure after a single intravenous injection and intragastric administration in male Wistar Han rats.
Experimental procedure: injection administration (IV): a dose of 1 mpk (vehicle: 30% PEG300/10% Cremphor EL/60% PBS (1×pH 7.4)); oral administration (PO): a dose of 5 mpk or 30 mpk (vehicle: 30% PEG300/10% Cremphor EL/60% PBS (1×pH 7.4))
Sample collection: About 0.3 mL of blood samples were collected by puncture of the jugular vein in experimental animals at each time point, and the actual blood collection time was recorded. All blood samples were added to 1.5 mL commercial EDTA-K2 anticoagulant tubes (supplied by Jiangsu Kangjian Medical Apparatus Co., Ltd.). After collection, the blood sample was centrifuged at 4° C., 3200 g for 10 min to aspirate the supernatant plasma, which was put in dry ice immediately, and stored in a refrigerator at −80° C. for LC-MS/MS analysis.
Data analysis: Plasma concentrations were processed using the non-compartmental model of Phoenix WinNonlin 6.3 pharmacokinetic software, and pharmacokinetic parameters Cl, Cmax, T1/2, and AUC0-last were calculated using the linear/log trapezoidal method.

The test system of series [5] is Sheep Anti-Rat Fx1A Serum induced Heymann nephritis. The experiment in a line: In vivo pharmacodynamic model of passive Heymann nephritis in rats. The note with it: intragastric twice a day for 14 days, FIG. 2. On the set-up: species or system male SD rats. The text has this:
Experimental objective: To investigate the ability of the compounds of the present disclosure to improve renal function of Sheep Anti-Rat Fx1A Serum induced Heymann nephritis in rats, including the evaluation of reducing proteinuria level and improving renal tissue damage.
Experimental animals: male SD rats, 7 to 10 weeks old, weighing 200 to 300 g; supplier: Beijing Vital River Laboratory Animal Technology Co., Ltd.
Urine was collected from rats on D-2 before administration. […]
Kidney sample collection: All animals were euthanized with CO2 inhalation anesthesia on Day 15, and bilateral kidneys were collected. […] Urine total protein (uTP) in rats was detected without dilution; if exceeding the upper detection limit, it was 10-fold diluted (10 μL of sample+90 μL of saline (0.9% saline)) first (Decrease mode); if still exceeding the upper detection limit after 10-fold dilution, it was 100-fold diluted (2 μL of sample+198 μL of saline (0.9% saline)) (Increase mode). Data were read by the analytical instrument HITACHI LST008 AS (P). • (2) Kidney pathological scoring: The degree of drug damage to rat kidneys (paraffin sections) was analyzed by HE staining. […]

Where [6] appears, read: male, Wistar Han, rat, plasma, 1 mg/kg, IV (1 mpk).
[7] abbreviates: male, C57BL/6J, mouse, plasma, 1 mg/kg, IV (1 mpk).
Where [8] appears, read: male, C57BL/6J, mouse, plasma, 10 mg/kg, PO (10 mpk).

Broadly, the IC50 is the concentration that inhibits the measured activity by half. One may read the Cmax as the maximum level reached in the sampled fluid or tissue. Consider `COc1cc(C)c2[nH]ccc2c1CN1CC[C@H](C2CC2)C[C@H]1c1ccc(C(=O)O)cc1` [Compound 3A], for which, in series [1], the “inhibition of C3d levels (LPS-induced complement activation)” value (from here on “inhibition of C3d levels”) was “significantly inhibit C3d levels” and the “inhibitory effect compared with LNP023” value was “better inhibitory effect than that of LNP023”. Further, in series [2], the concentration for half-maximal inhibition (IC50) was determined as 0.0236 µM. Moreover, in series [3] (IV (1 mpk)), the Cl turned out to be 12.0 mL/min/kg and the T1/2 is listed as 3.9 h. Besides, in series [3] (PO (10 mpk)), the AUC0-last amounted to 11.156 µM·h and the highest level (Cmax) was 4770 nM.
`COc1cc(C)c2[nH]ccc2c1CN1CC[C@@H](C2CC2)C[C@H]1c1ccc(C(=O)O)cc1` [Compound 3C]: in series [4] (IV (1 mpk)), the Cl was 4.6 mL/min/kg and the T1/2 came out at 3.8 h. Moreover, the F % in series [4] (PO (5 mpk or 30 mpk)) stood at 62%. The compound further gave a Cmax in series [4] (PO (5 mpk or 30 mpk), dose-normalized data) of 838 nM. In series [4] (PO, a dose of 5 mpk, dose-normalized data), the AUC0-last is reported as 5399^a nM · h. For the same compound, in series [1], the “inhibition of C3d levels” value was “significantly inhibit C3d levels” and the “inhibitory effect compared with LNP023” value was “better inhibitory effect than that of LNP023”. For the same compound, the half-inhibitory concentration (IC50) in series [2] turned out to be 0.0517 µM. Further, in series [3] (IV (1 mpk)), the Cl turned out to be 11.1 mL/min/kg and the T1/2 is 3.4 h. In series [3] (PO (10 mpk)), this compound returned an AUC0-last of 23.3 µM·h and a maximum concentration (Cmax) of 6320 nM.
As a reminder, the clearance is a measure of how efficiently the substance is removed, as volume per time. Low readings indicate inefficient removal, high ones efficient removal. What is called half-life is the time needed for the level to fall by half in the phase considered. A word on the AUC(0-t): it is the area under the concentration-time curve up to a stated or last time point. Broadly, the bioavailability is dose-corrected exposure relative to a reference, in per cent. A higher bioavailability goes with good availability. Regarding `CCO[C@H]1CCN(Cc2c(OC)cc(C)c3[nH]ccc23)[C@H](c2ccc(C(=O)O)cc2)C1` [LNP023, reference compound], the clearance in series [4] (setting [6]) is 6.7 mL/min/kg; in series [3] (setting [7]), 18.4 mL/min/kg. Further, the results for the half-life in series [4] (setting [6]) and in series [3] (setting [7]) were 1.2 h and 1.3 h, respectively. For the same compound, the exposure AUC(0-t) in series [4] (male, Wistar Han, rat, plasma, 30 mg/kg, PO, a dose of 30 mpk, dose-normalized data) worked out at 2.19 µM·h; in series [3] (setting [8]), 9.3 µM·h. In series [4] (male, Wistar Han, rat, plasma, PO (5 mpk or 30 mpk)), the bioavailability stood at 38%. In addition, the Cmax is 379 nM in series [4] (male, Wistar Han, rat, plasma, PO (5 mpk or 30 mpk), dose-normalized data) and 2500 nM in series [3] (setting [8]). For the same compound, the “urinary protein levels and renal function” value in series [5] is “significantly inhibit urinary protein levels in rats and improve renal function in rats”. Besides, the “inhibition of C3d levels” value in series [1] is recorded as “significantly inhibit C3d levels”.
